Source: patent publication US9420799B2, “Method for controlling nematode pests” (Syngenta Participations AG, priority 2011, dated 2016)

Test system: soybean cyst nematode (SCN)
Assay: Yield response field trials: soybean seed treated with Pasteuria nishizawae, compared with seed not treated with Pasteuria
Type: in vivo, Heterodera glycines
Conditions: for Yield Response for Resistant Varieties / Yield Response for Susceptible Varieties: approx. 1×10^7 spores/seed, percent yield increase vs seeds not treated with Pasteuria, averaged; for Yield Response for Susceptible Varieties: SCN susceptible soybean varieties
Protocol: Yield Response Experiment
Multiple field trials were conducted across the United States Midwest region. Baseline nematode populations were determined by sampling from 4 untreated plots. Samples were taken (10 cores per plot) at a depth of 6-8 inches (approx. 15.2-20.3 cm). Samples were stored in a cooler until laboratory assays (eggs/100 cc) were performed.
To allow for sufficient viability to assess results properly, both SCN resistant and susceptible varieties were treated with an insecticide and fungicide seed treatment (CRUISERMAXX seed treatment for beans available from Syngenta Crop Protection, LLC including thiamethoxam (22.61%); mefenoxam (1.70%) and fludioxonil (1.12%)). In addition for some test groups Pasteuria nishizawae treatment was applied at a rate of approximately 1×10^7 spores/seed. Percent yield increase was determined by comparing seeds treated with Pasteuria to those not treated with Pasteuria.
The results of 119 separate trials were sorted according to initial SCN pressure at trial location. Yield data were averaged.

## Pasteuria nishizawae
SCN resistant soybean varieties, SCN pressure 0 eggs/100 cc
  Yield Response for Resistant Varieties: 0.3%
SCN resistant soybean varieties, SCN pressure 1-500 eggs/100 cc
  Yield Response for Resistant Varieties: 0.7%
SCN resistant soybean varieties, SCN pressure 501-1000 eggs/100 cc
  Yield Response for Resistant Varieties: 2.6%
SCN resistant soybean varieties, SCN pressure >1000 eggs/100 cc
  Yield Response for Resistant Varieties: 5.2%
SCN resistant soybean varieties, all pest pressures
  Yield of resistant varieties, result in words: showed increase yield over non-Pasteuria treated soybean seed regardless of pest pressure
SCN pressure 0 eggs/100 cc
  Yield Response for Susceptible Varieties: 1.3%
SCN pressure 1-500 eggs/100 cc
  Yield Response for Susceptible Varieties: 1.0%
SCN pressure 501-1000 eggs/100 cc
  Yield Response for Susceptible Varieties: 0.8%
SCN pressure >1000 eggs/100 cc
  Yield Response for Susceptible Varieties: 0.0%
Soybean varieties having no resistance or tolerance to SCN, benefit mostly in absence of or with low pest pressure
  Yield of varieties with no resistance or tolerance to SCN, result in words: generally benefitted from treatment with Pasteuria
